Test results published in article PMC9031611 (Journal of Clinical Medicine, 2022).
Like-named read-outs stand apart in the source and are kept apart here.

How the values were obtained:
[1] = Solubility of MG005 and MG010; format: physicochemical; conditions: in words
[2] = cited from earlier work
[3] = cited from earlier work; remark: listed apart in the source
[4] = Pharmacokinetics assessments in phase I patients (plasma, steady state); conditions: for Tmax,ss: median (range); for AUC: AUC0→τ,ss
Protocol: This was a dual-agent, open-label, phase I study. […] We conducted the trial following the 3 + 3 dose-escalation phase I clinical trial design. […] There were three cohorts and at least […] were enrolled for each dose level. No intra-patient dose escalation was allowed, and each patient’s first dose was at least 5 days apart from the next patient’s first dose. DLTs were assessed during the initial 8-week and 4-week treatment periods for Cohort 1 and Cohorts 2/3, respectively. The criteria for DLTs are listed in Supplementary Table S1. […] The enrolled patients were treated until disease progression.
A plasma concentration–time profile for MG005 as a single agent was established, and PK parameters in terms of the following were also determined: peak plasma concentration (Cmax)/at steady state (Cmax,ss); time to reach peak concentration (Tmax)/at steady state (Tmax,ss); AUC in 1 dosing interval at steady state (AUC0→τ,ss).

[5] = set-up: method as in PMID 26100670; conditions: in vitro and in vivo studies; cited from earlier work
[6] = Day 28, Cohort 1: 750 mg QD MG005 plus 200 mg QD sorafenib, mean ± SD
[7] = Day 28, Cohort 2: 1500 mg QD MG005 plus 200 mg QD sorafenib, mean ± SD
[8] = Day 28, Cohort 2: 1500 mg QD MG005 plus 200 mg QD sorafenib
[9] = Day 28, Cohort 3: 750 mg BID MG005 plus 200 mg QD sorafenib, mean ± SD

SMILES: O=C1Nc2ccc(I)cc2/C1=C/c1cc(Br)c(O)c(Br)c1 [GW5074]
- solubility [1]: not satisfactory
- solubility ([1]; listed as MG005): poor solubility
- findings of repeated toxicity studies ([2]; rat, in vivo): did not cause major abnormality except emesis and watery stool
- no-observed-adverse-effect-level (NOAEL) ([2]; repeated dosing): highest dose levels tested
- findings of repeated toxicity studies ([3]; dog, in vivo): did not cause major abnormality except emesis and watery stool
- no-observed-adverse-effect-level (NOAEL) ([3]; repeated dosing): highest dose levels tested
- AUC0→τ,ss [4, 6]: 5639.9 ± 2675.9 ng·h/mL
- Cmax,ss [4, 6]: 685.6 ± 335.4 ng/mL
- Tmax,ss ([4]; Day 28, Cohort 1: 750 mg QD MG005 plus 200 mg QD sorafenib): 6.0 (5.0–6.0) Hr
- AUC0→τ,ss [4, 7]: 5553.7 ± 950.2 ng·h/mL
- Cmax,ss [4, 7]: 786.0 ± 180.0 ng/mL
- Tmax,ss [4, 8]: 4.0 (2.1–4.1) Hr
- AUC0→τ,ss [4, 9]: 6249.6 ± 2619.6 ng·h/mL
- Cmax,ss [4, 9]: 620.0 ± 382.6 ng/mL
- Tmax,ss ([4]; Day 28, Cohort 3: 750 mg BID MG005 plus 200 mg QD sorafenib): 14.0 (0.0–23.9) Hr
- bioavailability ([4]; patients, oral): low bioavailability
- absorption ([4]; patients, 750 mg QD to 1500 mg QD gave no significant increase in bioavailability): poor absorption
- half-life ([4]; patients, compared to sorafenib): significantly shorter half-life when compared to sorafenib
- mutagenicity and genotoxicity [5]: neither mutagenic nor genotoxic

SMILES: CNC(=O)c1cc(Oc2ccc(NC(=O)Nc3ccc(Cl)c(C(F)(F)F)c3)cc2)ccn1 [sorafenib, reference compound]
- Tmax,ss [4, 8]: 8.0 (2.1–23.5) Hr
- AUC ([4]; human, plasma, oral, Day 28, Cohort 1: 750 mg QD MG005 plus 200 mg QD sorafenib, mean ± SD): 88600 ng·h/mL
- AUC ([4]; human, plasma, oral, Day 28, Cohort 2: 1500 mg QD MG005 plus 200 mg QD sorafenib, mean ± SD): 51400 ng·h/mL
- AUC ([4]; human, plasma, oral, Day 28, Cohort 3: 750 mg BID MG005 plus 200 mg QD sorafenib, mean ± SD): 30600 ng·h/mL
- Cmax ([4]; human, plasma, oral, Cmax,ss, Day 28, Cohort 2: 1500 mg QD MG005 plus 200 mg QD sorafenib, mean ± SD): 3730 ± 1530 ng/mL
